Assay results taken from US20030044412A1, “Membrane estrogen receptor-directed therapy in breast cancer” (priority 2002, published 2003).
Like-named read-outs stand apart in the source and are kept apart here.

Assays:
[1] = test system: MCF-7 human breast cancer cells; test: Assay of cell proliferation in vitro (cell counts); format: cell-based; details: for cell growth after brief treatment with BSA conjugate: 0.5 μM for 10 min, 72 h in estrogen-free media
Akt kinase = Akt kinase activity (phosphorylated GSK-3 densitometry) in MCF-7 cells; format: cell-based, human
[2] = test system: MAPK, ERK-1 (p44) and ERK-2 (p42); test: p44/42 MAPK phosphorylation/activity in MCF-7 cells; format: cell-based, human
[3] = test system: MAPK, ERK-1 (p44) and ERK-2 (p42); details: independent report (40); cited from earlier work
[4] = test system: surface membrane ER of MCF-7 (MCF-7 PAR) breast cancer cells; test: Membrane labeling with E2β-BSA-FITC, fluorescent microscopy and flow cytometry; format: binding, human
estrogen receptor = test: Serine phosphorylation of estrogen receptor in human breast cancer cells; format: cell-based; details: prior exposure, 15 minutes after estrogen
Experimental: FIG. 12 is a gel showing that the MAPKK (MEK) inhibitor, PD 98059 (PD), reduces estrogen (E2)-induced serine phosphorylation of estrogen receptor. Serine phosphorylation of estrogen receptor in human breast cancer cells was assessed at 15-60 min after treatment with E2 alone or in combination with PD 98059
This blockade of estrogen-induced MAP kinase activation by PD 980959 results in the suppression of estrogen-induced growth of MCF-7 breast cancer cells (see FIG. 13).

[5] = biological target: plasma membranes from MCF-7 human breast cancer cells (membrane-associated estrogen receptor) (Homo sapiens, UniProt P03372); details: 100-fold molar excess of competitor
[6] = biological target: T1, HER-2 receptor / estrogen receptor association (Homo sapiens, UniProt P04626+P21860); test: Immunoprecipitation/Western blot of HER-2 receptor with ER; format: cell-based; details: 10 nM, 5-60 minutes, MCF-7 cells
T1 construct: endogenous in cells; host or cells: MCF-7 PAR
Experimental: MCF-7 breast cancer cells were treated in vitro for 5-60 minutes with 10 nM heregulin, a ligand known to activate HER-2/HER-3 receptors (3). Lysates were prepared and processed as described before (3). Samples were immunoprecipitated with anti-HER-2 antibody (IP:HER-2 receptor) prior to electrophoresis and Western blotting with anti-ER antibody H222 (IB: estrogen receptor). Estrogen receptor normally occurs as a 65- to 70-kd protein (3). The experiment shown here is representative of results from 4 other experiments. In independent experiments in which samples were immunoprecipitated with anti-ER antibody prior to electrophoresis and Western blotting with anti-HER-2 antibody, a similar association between ER and HER-2 receptors was found.
To further evaluate prior reports of cross-communication between ER and HER-2 receptors (3,24,29,54), MCF-7 PAR cells were treated in vitro with heregulin, a ligand for activation of HER-2/HER-3 receptor heterodimers (3). […] MCF-7 breast cancer cells were treated in vitro for 5-60 minutes with 10 nM heregulin, a ligand known to activate HER-2/HER-3 receptors (3). Lysates were prepared and processed as described before (3). Samples were immunoprecipitated with anti-HER-2 antibody (IP: HER-2 receptor) prior to electrophoresis and Western blotting with anti-ER antibody H222 (IB: estrogen receptor). […]

**Q.** With “6 keto-17α-estradiol 6-(o-carboximethyloxime:BSA [Ab E2α-BSA]” as the compound, how does the “cell growth after brief treatment with BSA conjugate” value [1] read?
**A.** The value was “not”.

**Q.** What does the source list for “17β-estradiol 17-hemisuccinate covalently linked to bovine serum albumin [Ab E2β-BSA]”?
**A.** activation of Akt kinase (Akt kinase; 10 nM E2β or 0.5 μM E2β-BSA for 20 min): significant activation; cell growth after brief treatment with BSA conjugate [1]: stimulates cell growth; proliferative response to short-term treatment ([1]; 10 min treatment, counted after 48 hrs in estrogen-free media, P<0.001): stimulate cell growth; phosphorylation of MAPK isoforms ([2]; 10 nM E2β, E2α, 0.5 μM BSA conjugates): phosphorylation of MAPK isoforms is again evident

**Q.** With `N#CC(=C(/N)Sc1ccccc1N)/C(C#N)=C(\N)Sc1ccccc1N` [Ab U0126] as the compound, how does the “Inhibition of MCF-7 cell growth” value ([1]; 10 μM for 2 h before VH, 10 nM E2 or 1 μM E2-BSA, 72 h) read?
**A.** Its value is “Inhibition”.

**Q.** What about the “inhibition of MAPK phosphorylation/activation induced by E2β or E2β-BSA” value ([2]; Ab2 10 μg/ml 2 h or U0126 25 μM 90 min preincubation) of the same compound?
**A.** Its value is “prevented activation”.

**Q.** Which “inhibition of estrogen-induced Akt kinase activation” value (Akt kinase; preincubation: Ab2 10 μg/ml, ICI 182,780 1 μM, LY294002 10 μM) does the source give for `C[C@]12CC[C@@H]3c4ccc(O)cc4C[C@@H](CCCCCCCCC[S+]([O-])CCCC(F)(F)C(F)(F)F)[C@H]3[C@@H]1CC[C@@H]2O` (stereo partly drawn) [ICI 182,780] here?
**A.** The value was “inhibition”.

**Q.** And the “inhibition of estrogen-induced MAPK activity in MCF-7 cells” value [3]?
**A.** The value was “inhibit”.

**Q.** And the “blockade of proliferative effect of E2β-BSA” value ([1]; 10 nM ICI 182,780 with 200 nM E2-BSA, 10 min, 48 hrs)?
**A.** The value was “blocked”.

**Q.** And the “blockade of proliferative effect of E2β-BSA” value ([1]; 0.5 μM E2β-BSA 10 min, 72 h)?
**A.** Its value is “blocked”.

**Q.** And the “competition for E2β-BSA-FITC surface binding (flow cytometry)” value [4]?
**A.** Its value is “significant reduction”.

**Q.** What about the “competition for membrane-associated binding of E2β-BSA-FITC” value [4] of the same compound?
**A.** The value was “competitively reduced”.

**Q.** For `COc1cccc(-c2cc(=O)c3ccccc3o2)c1N` [PD 98059], which “suppression of estrogen-induced serine phosphorylation of the estrogen receptor” value (estrogen receptor) is on record?
**A.** The value was “suppressed”.

**Q.** And the “suppression of estrogen-induced growth” value ([1]; 20 micromolar inhibitor, estradiol-17β at 2 nM)?
**A.** Its value is “suppression”.

**Q.** What about the “blockade of estradiol activation of MAP kinase” value ([2]; pre-treatment, 20 μM) of the same compound?
**A.** The value was “blocked”.

**Q.** For `CC(=O)[C@H]1CC[C@H]2[C@@H]3CCC4=CC(=O)CC[C@]4(C)[C@H]3CC[C@]12C` [progesterone], which “suppression of [3H]E2β binding to PM by unlabeled competing steroid” value [5] is on record?
**A.** Its value is “essentially uninfluenced”.

**Q.** And the “competition for membrane-associated binding of E2β-BSA-FITC” value ([4]; MCF-7 PAR cells, Ab 1 at 1 μg/ml)?
**A.** Its value is “not”.

**Q.** What about the “competition for E2β-BSA-FITC surface binding (flow cytometry)” value ([4]; MCF-7 cells, P<0.01) of the same compound?
**A.** Its value is “not effective”.

**Q.** With `C[C@]12CC[C@H]3[C@@H](CCC4=CC(=O)CC[C@@]43C)[C@@H]1CC[C@@H]2O` [testosterone] as the compound, how does the “suppression of [3H]E2β binding to PM by unlabeled competing steroid” value [5] read?
**A.** Its value is “essentially uninfluenced”.

**Q.** For heregulin, which “physical association of HER-2 receptor with estrogen receptor” value [6] is on record?
**A.** The value was “promotes physical association”.
